Test results reported in PubChem BioAssay AID250 (DTP/NCI, 2004).
“And” between values parts separate entries of the source, which are not always exact repeats. Equal entries are not always repeated. Toxic doses and inconclusive results are not listed.

System: BDF1 mice, L1210 leukemia sc, survival T/C
Assay: NCI In Vivo Anticancer Drug Screen. Data for tumor model L1210 Leukemia (subcutaneous) in B6D2F1 (BDF1) mice
Conditions: endpoint: median survival time, higher = longer survival
Summary of the method: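 Transplantable tumor-bearing mice; survival or tumor size recorded; result = T/C, treated vs vehicle control.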

With CC(CN1CC(=O)NC(=O)C1)N1CC(=O)NC(=O)C1 (stereo unspecified) the T/C (dose: 3.12 mg/kg/injection, schedule: Q03HX024 (ip), vehicle: other) was 115 % of control, the T/C (dose: 3.12 mg/kg/injection, schedule: Q03HX024 (ip), vehicle: steriod suspending solution) was 111 % of control and the T/C (dose: 6.25 mg/kg/injection, schedule: Q03HX024 (ip), vehicle: other) was 156 % of control. For the same compound, the T/C (dose: 6.25 mg/kg/injection, schedule: Q03HX024 (ip), vehicle: steriod suspending solution) was 155 % of control, the T/C (dose: 8.4 mg/kg/injection, schedule: Q03HX024 (sc), vehicle: Klucel (hydroxypropylcellulose) (HPC)) was 150 % of control and the T/C (dose: 10.0 mg/kg/injection, schedule: Q03HX024 (sc), vehicle: Klucel (hydroxypropylcellulose) (HPC)) was 184 % of control and 185 % of control. The T/C (dose: 12.5 mg/kg/injection, schedule: Q01DX009 (sc), vehicle: steriod suspending solution) was 105 % of control, the T/C (dose: 12.5 mg/kg/injection, schedule: Q03HX024 (ip), vehicle: other) was 191 % of control and the T/C (dose: 12.5 mg/kg/injection, schedule: Q03HX024 (ip), vehicle: steriod suspending solution) was 161 % of control. The T/C (dose: 14.0 mg/kg/injection, schedule: Q03HX024 (sc), vehicle: Klucel (hydroxypropylcellulose) (HPC)) was 180 % of control, the T/C (dose: 16.0 mg/kg/injection, schedule: Q01DX009 (ip), vehicle: Klucel (hydroxypropylcellulose) (HPC)) was 109 % of control and 124 % of control and the T/C (dose: 16.0 mg/kg/injection, schedule: Q01DX009 (ip), vehicle: other) was 119 % of control. The T/C (dose: 20.0 mg/kg/injection, schedule: Q03HX024 (sc), vehicle: Klucel (hydroxypropylcellulose) (HPC)) was 194 % of control and 195 % of control, the T/C (dose: 23.0 mg/kg/injection, schedule: Q03HX024 (sc), vehicle: Klucel (hydroxypropylcellulose) (HPC)) was 200 % of control and the T/C (dose: 25.0 mg/kg/injection, schedule: Q01DX009 (sc), vehicle: steriod suspending solution) was 120 % of control. The T/C (dose: 25.0 mg/kg/injection, schedule: Q03HX024 (ip), vehicle: other) was 160 % of control, the T/C (dose: 25.0 mg/kg/injection, schedule: Q03HX024 (ip), vehicle: steriod suspending solution) was 155 % of control and the T/C (dose: 39.0 mg/kg/injection, schedule: Q03HX024 (sc), vehicle: Klucel (hydroxypropylcellulose) (HPC)) was 205 % of control. For the same compound, the T/C (dose: 40.0 mg/kg/injection, schedule: Q03HX024 (sc), vehicle: Klucel (hydroxypropylcellulose) (HPC)) was 199 % of control and 200 % of control, the T/C (dose: 50.0 mg/kg/injection, schedule: Q01DX009 (ip), vehicle: steriod suspending solution) was 150 % of control and the T/C (dose: 50.0 mg/kg/injection, schedule: Q01DX009 (sc), vehicle: steriod suspending solution) was 155 % of control. For the same compound, the T/C (dose: 50.0 mg/kg/injection, schedule: Q04DX003 (sc), vehicle: Klucel (hydroxypropylcellulose) (HPC)) was 110 % of control and 112 % of control, the T/C (dose: 64.0 mg/kg/injection, schedule: Q01DX009 (ip), vehicle: Klucel (hydroxypropylcellulose) (HPC)) was 154 % of control and the T/C (dose: 65.0 mg/kg/injection, schedule: Q01DX009 (sc), vehicle: Klucel (hydroxypropylcellulose) (HPC)) was 170 % of control. The T/C (dose: 65.0 mg/kg/injection, schedule: Q03HX024 (sc), vehicle: Klucel (hydroxypropylcellulose) (HPC)) was 205 % of control, the T/C (dose: 80.0 mg/kg/injection, schedule: Q03HX024 (sc), vehicle: Klucel (hydroxypropylcellulose) (HPC)) was 118 % of control and 120 % of control and the T/C (dose: 100.0 mg/kg/injection, schedule: Q01DX009 (ip), vehicle: steriod suspending solution) was 110 % of control. The T/C (dose: 100.0 mg/kg/injection, schedule: Q01DX009 (sc), vehicle: steriod suspending solution) was 150 % of control and 175 % of control, the T/C (dose: 100.0 mg/kg/injection, schedule: Q04DX003 (ip), vehicle: other) was 117 % of control and the T/C (dose: 100.0 mg/kg/injection, schedule: Q04DX003 (ip), vehicle: steriod suspending solution) was 120 % of control. For the same compound, the T/C (dose: 100.0 mg/kg/injection, schedule: Q04DX003 (sc), vehicle: steriod suspending solution) was 100 % of control and 120 % of control, the T/C (dose: 108.0 mg/kg/injection, schedule: Q01DX009 (sc), vehicle: Klucel (hydroxypropylcellulose) (HPC)) was 160 % of control and the T/C (dose: 108.0 mg/kg/injection, schedule: Q04DX003 (sc), vehicle: Klucel (hydroxypropylcellulose) (HPC)) was 118 % of control and 122 % of control. The T/C (dose: 200.0 mg/kg/injection, schedule: Q01DX009 (ip), vehicle: steriod suspending solution) was 90 % of control, the T/C (dose: 200.0 mg/kg/injection, schedule: Q01DX009 (sc), vehicle: steriod suspending solution) was 90 % of control and the T/C (dose: 200.0 mg/kg/injection, schedule: Q04DX003 (ip), vehicle: Klucel (hydroxypropylcellulose) (HPC)) was 150 % of control. The T/C (dose: 200.0 mg/kg/injection, schedule: Q04DX003 (ip), vehicle: other) was 175 % of control, the T/C (dose: 200.0 mg/kg/injection, schedule: Q04DX003 (ip), vehicle: steriod suspending solution) was 150 % of control and 175 % of control and the T/C (dose: 200.0 mg/kg/injection, schedule: Q04DX003 (sc), vehicle: steriod suspending solution) was 100 % of control. The T/C (dose: 256.0 mg/kg/injection, schedule: Q01DX009 (ip), vehicle: Klucel (hydroxypropylcellulose) (HPC)) was 116 % of control and 121 % of control, the T/C (dose: 256.0 mg/kg/injection, schedule: Q01DX009 (ip), vehicle: other) was 105 % of control and the T/C (dose: 300.0 mg/kg/injection, schedule: Q01DX009 (sc), vehicle: Klucel (hydroxypropylcellulose) (HPC)) was 120 % of control. The T/C (dose: 300.0 mg/kg/injection, schedule: Q04DX003 (sc), vehicle: Klucel (hydroxypropylcellulose) (HPC)) was 160 % of control and 169 % of control and 177 % of control, the T/C (dose: 400.0 mg/kg/injection, schedule: Q04DX003 (ip), vehicle: Klucel (hydroxypropylcellulose) (HPC)) was 206 % of control and the T/C (dose: 400.0 mg/kg/injection, schedule: Q04DX003 (ip), vehicle: other) was 156 % of control and 207 % of control. For the same compound, the T/C (dose: 400.0 mg/kg/injection, schedule: Q04DX003 (ip), vehicle: steriod suspending solution) was 155 % of control and 185 % of control and 205 % of control, the T/C (dose: 500.0 mg/kg/injection, schedule: Q01DX009 (sc), vehicle: Klucel (hydroxypropylcellulose) (HPC)) was 100 % of control and the T/C (dose: 512.0 mg/kg/injection, schedule: Q01DX009 (ip), vehicle: Klucel (hydroxypropylcellulose) (HPC)) was 107 % of control. The T/C (dose: 800.0 mg/kg/injection, schedule: Q04DX003 (ip), vehicle: Klucel (hydroxypropylcellulose) (HPC)) was 112 % of control, the T/C (dose: 800.0 mg/kg/injection, schedule: Q04DX003 (ip), vehicle: other) was 111 % of control and 118 % of control and the T/C (dose: 800.0 mg/kg/injection, schedule: Q04DX003 (ip), vehicle: steriod suspending solution) was 100 % of control and 110 % of control and 120 % of control. The T/C (dose: 800.0 mg/kg/injection, schedule: Q04DX003 (sc), vehicle: steriod suspending solution) was 110 % of control and 120 % of control, the T/C (dose: 833.0 mg/kg/injection, schedule: Q04DX003 (oral), vehicle: Klucel (hydroxypropylcellulose) (HPC)) was 161 % of control and 168 % of control and the T/C (dose: 833.0 mg/kg/injection, schedule: Q04DX003 (sc), vehicle: Klucel (hydroxypropylcellulose) (HPC)) was 107 % of control and 111 % of control. For the same compound, the T/C (dose: 840.0 mg/kg/injection, schedule: Q04DX003 (oral), vehicle: Klucel (hydroxypropylcellulose) (HPC)) was 186 % of control and 188 % of control and the T/C (dose: 1388.0 mg/kg/injection, schedule: Q04DX003 (sc), vehicle: Klucel (hydroxypropylcellulose) (HPC)) was 100 % of control.
